Experimental data reported in patent US20260184710A1, “CASITAS B-LINEAGE LYMPHOMA PROTOONCOGENE B (CBL-B) DEGRADING COMPOUNDS AND ASSOCIATED METHODS OF USE” (Arvinas Operations, Inc., priority 2022, published 2026).

Target: T1, Cbl-b (Homo sapiens, UniProt Q13191)
T1 construct: Cbl-b-HiBit KI Jurkat Cells were purchased from Promega; host or cells: Cbl-b-HiBiT knock-in Jurkat cells
Test: Cbl-b Degradation Method B (Nano-Glo HiBiT lytic detection)
Assay type: cell-based
Conditions: Cbl-b-HiBit KI Jurkat Cells, incubated at least 6-24 hours; for DC50: half maximal degradation, read-out: Cbl-b Degredation Method B IC50; for Dmax: maximum degradation observed, read-out: Cbl-b Degredation Method B Dmax (%)
In short: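 An 11-point, 3-fold compound dilution was applied for 6-24 hours to Jurkat cells carrying HiBiT-tagged endogenous Cbl-b. Lytic HiBiT luminescence quantified residual protein. Outputs are DC50 and Dmax relative to DMSO control.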

T1 sequence (Q13191 whole entry): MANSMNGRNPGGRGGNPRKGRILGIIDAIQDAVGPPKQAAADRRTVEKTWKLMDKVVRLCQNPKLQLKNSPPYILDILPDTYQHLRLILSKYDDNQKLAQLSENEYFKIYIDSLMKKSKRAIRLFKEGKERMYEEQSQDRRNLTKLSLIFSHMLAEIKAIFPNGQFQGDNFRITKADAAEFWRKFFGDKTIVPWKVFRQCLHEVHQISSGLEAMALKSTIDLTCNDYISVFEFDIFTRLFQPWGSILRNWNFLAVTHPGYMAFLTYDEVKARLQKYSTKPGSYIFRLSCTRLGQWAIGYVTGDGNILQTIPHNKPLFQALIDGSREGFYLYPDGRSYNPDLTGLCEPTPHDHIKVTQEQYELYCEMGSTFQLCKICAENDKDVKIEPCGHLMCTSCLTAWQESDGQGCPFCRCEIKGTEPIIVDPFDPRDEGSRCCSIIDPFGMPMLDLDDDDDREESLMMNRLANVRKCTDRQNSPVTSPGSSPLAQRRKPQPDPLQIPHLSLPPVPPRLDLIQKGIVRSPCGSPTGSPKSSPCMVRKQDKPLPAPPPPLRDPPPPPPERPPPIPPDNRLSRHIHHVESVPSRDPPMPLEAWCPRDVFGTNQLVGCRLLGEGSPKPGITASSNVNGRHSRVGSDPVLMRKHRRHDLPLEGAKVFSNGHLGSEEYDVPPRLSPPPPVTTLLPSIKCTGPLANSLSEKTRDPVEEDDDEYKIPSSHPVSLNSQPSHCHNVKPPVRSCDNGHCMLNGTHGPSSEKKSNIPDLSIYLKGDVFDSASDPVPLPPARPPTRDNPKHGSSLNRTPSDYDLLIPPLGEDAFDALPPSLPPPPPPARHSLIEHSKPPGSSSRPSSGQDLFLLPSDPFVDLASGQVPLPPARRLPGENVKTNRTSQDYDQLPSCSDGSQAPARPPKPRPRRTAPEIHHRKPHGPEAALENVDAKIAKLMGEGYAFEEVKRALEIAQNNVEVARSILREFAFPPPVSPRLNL

| SMILES | DC50 | Dmax |
| --- | --- | --- |
| Cc1cc(N2CCC(CN3CCCN(c4cc5c(c(C(F)(F)F)c4)CN(c4cccc([C@]6(Cc7nncn7C)C[C@@H](C#N)C6)c4)C5=O)CC3)CC2)c(F)c2c1C(=O)N(C1CCC(=O)NC1=O)C2 (some centres unmarked) [Example 170, (1r,3r)-3-(3-{6-[4-({1-[2-(2,6-dioxopiperidin-3-yl)-4-fluoro-7-methyl-1-oxo-2,3-dihydro-1H-isoindol-5-yl]piperidin-4-yl}methyl)-1,4-diazepan-1-yl]-1-oxo-4-(trifluoromethyl)-2,3-dihydro-1H-isoindol-2-yl}phenyl)-3-[(4-methyl-4H-1,2,4-triazol-3-yl)methyl]cyclobutane-1-carbonitrile] | > 500 nM |  |
| C[C@@H]1c2nc(N3CCC(O[C@H]4CC[C@H](CN5CCN(Cc6cc7c(c(C(F)(F)F)c6)CN(c6cccc(C8(Cc9nncn9C)CC(C#N)C8)c6)C7=O)[C@@H](C)C5)CC4)CC3)ccc2C(=O)N1C1CCC(=O)NC1=O (single isomer, unassigned) [Example 248, (1r***,3r***)-3-[3-(6-{[(2S)-2-methyl-4-{[(1r**,4r**)-4-({1-[(7R*)-6-(2,6-dioxopiperidin-3-yl)-7-methyl-5-oxo-5H,6H,7H-pyrrolo[3,4-b]pyridin-2-yl]piperidin-4-yl}oxy)cyclohexyl]methyl}piperazin-1-yl]methyl}-1-oxo-4-(trifluoromethyl)-2,3-dihydro-1H-isoindol-2-yl)phenyl]-3-[(4-methyl-4H-1,2,4-triazol-3-yl)methyl]cyclobutane-1-carbonitrile] | > 500 nM |  |
| Cn1cnnc1CC1(c2cccc(N3Cc4c(cc(CN5CCN(CCN(C)[C@H]6C[C@H](Oc7ccc8c(c7)C(=O)N(C7CCC(=O)NC7=O)C8=O)C6)CC5)cc4C(F)(F)F)C3=O)c2)COC1 (some centres unmarked) [Example 63, 2-(2,6-dioxopiperidin-3-yl)-5-[(1r,3r)-3-{methyl[2-(4-{[2-(3-{3-[(4-methyl-4H-1,2,4-triazol-3-yl)methyl]oxetan-3-yl}phenyl)-3-oxo-7-(trifluoromethyl)-2,3-dihydro-1H-isoindol-5-yl]methyl}piperazin-1-yl)ethyl]amino}cyclobutoxy]-2,3-dihydro-1H-isoindole-1,3-dione] | > 500 nM |  |
| Cn1cnnc1CC1(c2cccc(N3Cc4c(cc(CN5CCC[C@H](CN6CCN(C(=O)[C@H]7CC[C@@H](OC8CCN(c9ccc%10c(c9F)CN(C9CCC(=O)NC9=O)C%10=O)CC8)CC7)CC6)C5)cc4C(F)(F)F)C3=O)c2)COC1 (stereo partly drawn) [Example 113, 3-[4-fluoro-1-oxo-5-(4-{[(1r,4r)-4-(4-{[(3S)-1-{[2-(3-{3-[(4-methyl-4H-1,2,4-triazol-3-yl)methyl]oxetan-3-yl}phenyl)-3-oxo-7-(trifluoromethyl)-2,3-dihydro-1H-isoindol-5-yl]methyl}piperidin-3-yl]methyl}piperazine-1-carbonyl)cyclohexyl]oxy}piperidin-1-yl)-2,3-dihydro-1H-isoindol-2-yl]piperidine-2,6-dione] | < 5 nM | 35 to 70% |

More lines, now with the values ahead:

| DC50 | Dmax | SMILES |
| --- | --- | --- |
| < 5 nM | > 70% | C[C@@H]1c2nc(N3CCC(O[C@H]4CC[C@H](CN5CCN(Cc6cc7c(c(C(F)(F)F)c6)CN(c6cccc(C8(Cc9nncn9C)CC(C#N)C8)c6)C7=O)[C@@H](C)C5)CC4)CC3)ccc2C(=O)N1C1CCC(=O)NC1=O (single isomer, unassigned) [Example 247, (1r***,3r***)-3-[3-(6-{[(2S)-2-methyl-4-{[(1r**,4r**)-4-({1-[(7R*)-6-(2,6-dioxopiperidin-3-yl)-7-methyl-5-oxo-5H,6H,7H-pyrrolo[3,4-b]pyridin-2-yl]piperidin-4-yl}oxy)cyclohexyl]methyl}piperazin-1-yl]methyl}-1-oxo-4-(trifluoromethyl)-2,3-dihydro-1H-isoindol-2-yl)phenyl]-3-[(4-methyl-4H-1,2,4-triazol-3-yl)methyl]cyclobutane-1-carbonitrile] |
| 5 to 50 nM | 35 to 70% | Cc1cc(C2CCN(CC3CCC4(CC3)CN(c3cc5c(c(C(F)(F)F)c3)CN(c3cccc([C@]6(Cc7nncn7C)C[C@@H](C#N)C6)c3)C5=O)C4)CC2)c(F)c2c1C(=O)N(C1CCC(=O)NC1=O)C2 (some centres unmarked) [Example 272, (1r,3r)-3-(3-{6-[7-({4-[2-(2,6-dioxopiperidin-3-yl)-4-fluoro-7-methyl-1-oxo-2,3-dihydro-1H-isoindol-5-yl]piperidin-1-yl}methyl)-2-azaspiro[3.5]nonan-2-yl]-1-oxo-4-(trifluoromethyl)-2,3-dihydro-1H-isoindol-2-yl}phenyl)-3-[(4-methyl-4H-1,2,4-triazol-3-yl)methyl]cyclobutane-1-carbonitrile] |
| > 500 nM |  | Cn1cnnc1C[C@]1(c2cccc(N3Cc4c(cc(CN5CCN(C[C@H]6CC[C@H](OC7CCN(c8ccc(C9CCC(=O)NC9=O)nc8)CC7)CC6)CC5)cc4C(F)(F)F)C3=O)c2)C[C@H](C#N)C1 (some centres unmarked) [Example 213, (1r,3r)-3-[(4-methyl-4H-1,2,4-triazol-3-yl)methyl]-3-(3-{1-oxo-6-[(4-{[(1r,4r)-4-({1-[6-(2,6-dioxopiperidin-3-yl)pyridin-3-yl]piperidin-4-yl}oxy)cyclohexyl]methyl}piperazin-1-yl)methyl]-4-(trifluoromethyl)-2,3-dihydro-1H-isoindol-2-yl}phenyl)cyclobutane-1-carbonitrile] |
| > 500 nM |  | Cn1cnnc1CC1(c2cccc(N3Cc4c(cc(CN5CCN([C@H]6CC[C@H](Nc7ccc8c(c7)C(=O)N(C7CCC(=O)NC7=O)C8=O)CC6)CC5)cc4C(F)(F)F)C3=O)c2)COC1 (some centres unmarked) [Example 44, 2-(2,6-dioxopiperidin-3-yl)-5-{[(1r,4r)-4-(4-{[2-(3-{3-[(4-methyl-4H-1,2,4-triazol-3-yl)methyl]oxetan-3-yl}phenyl)-3-oxo-7-(trifluoromethyl)-2,3-dihydro-1H-isoindol-5-yl]methyl}piperazin-1-yl)cyclohexyl]amino}-2,3-dihydro-1H-isoindole-1,3-dione] |
